pIC50: −log10 of the molar value.
Biological target: T1, PD-1/PD-L1 (Homo sapiens, UniProt Q9NZQ7)
T1 construct: purchased Cisbio 63ADK000CPDEC
Assay: PD-1/PD-L1 homogeneous time-resolved fluorescence (HTRF) binding assay
Conditions: 665 nm/620 nm ratio
Excerpt: Test Example 1: Detect the Inhibitory Effect of the Compound to the Binding of PD-1/PD-L1 Protein
The PD-1/PD-L1 homogeneous time-resolved fluorescence method is used to detect the binding ability of the compound with PD-L1.
PD-1/PD-L1 binding assay kit (Cisbio, Cat #63ADK000CPDEC) was chosen, which contains two proteins Tag 1-PD-L1 and Tag 2-PD-1, and two antibodies Anti-Tag1-Eu^3+ and Anti-Tag2-XL 665. The principle of detection was: Anti-tag1-Eu^3+ was used as the donor of HTRF, and Anti-Tag2-XL 665 was used as the acceptor of HTRF. When Tag 1-PD-L1 interacts with Tag 2-PD-1, the added HTRF donor and the acceptor are close to each other. After the donor has received the excitation energy, part of the energy was transferred to the acceptor, thus generating 665 nm emission light. […] The inhibitory effect of the compound can be determined by comparing the ratio of 665 nm/620 nm. Tag 1-PD-L1 was diluted with Diluent buffer (cat #62DLBDDF) to a working concentration of 10 nM, Tag 2-PD-1 was diluted with Diluent buffer to a working concentration of 500 nM, Anti-Tag1-Eu^3+ was diluted with detection buffer (cat #62DB1FDG) at a ratio of 1:100, Anti-Tag2-XL 665 was diluted with detection buffer at a ratio of 1:20, and the compound to be detected was diluted with diluent buffer to a final concentration of 2×. Compound solution (2 μL) was added to each well of a 384-well plate, then Tag 1-PD-L1 (4 μL) and Tag 2-PD-1 (4 μL) were added successively. The mixture was incubated at room temperature for 15 minutes. Then Anti-Tag1-Eu^3+ (5 μL) and Anti-Tag2-XL 665 (5 μL) were added, and the mixture was incubated overnight at room temperature. BioTek Synergy™ Neo2 multifunctional microplate reader was used to detect so as to provide the 665 nm/620 nm ratio. PrismGraphd 5.02 was used to fit the IC50 curve.

T1 sequence (Q9NZQ7 19-238 limits assumed): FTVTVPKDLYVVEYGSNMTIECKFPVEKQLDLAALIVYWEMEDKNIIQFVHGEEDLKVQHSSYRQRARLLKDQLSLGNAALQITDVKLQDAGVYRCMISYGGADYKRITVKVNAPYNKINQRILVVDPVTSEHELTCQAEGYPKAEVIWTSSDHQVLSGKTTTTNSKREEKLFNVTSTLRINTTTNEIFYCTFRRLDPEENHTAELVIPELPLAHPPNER

Row | Compound | pIC50
1 | O[C@@H]1CCN(Cc2nc3c(Nc4cccc(-c5ccccc5)c4Cl)nccc3s2)C1 [Compound 6, (R)-1-((4-((2-Chloro-[1,1′-biphenyl]-3-yl)amino)thiazolo[4,5-c]pyridin-2-yl)methyl)pyrrolidin-3-ol] | 6.00 to 7.00
2 | O[C@H]1CCN(Cc2nc3c(Nc4cccc(-c5ccccc5)c4Cl)nccc3s2)C1 [Compound 7, (S)-1-((4-((2-Chloro-[1,1′-biphenyl]-3-yl)amino)thiazolo[4,5-c]pyridin-2-yl)methyl)pyrrolidin-3-ol] | 6.00 to 7.00
3 | O=C(O)CNCc1nc2c(Nc3cccc(-c4ccccc4)c3Cl)nccc2s1 [Compound 8, ((4-((2-Chloro-[1,1′-biphenyl]-3-yl)amino)thiazolo[4,5-c]pyridin-2-yl)methyl)glycine] | > 7.00
4 | O=C(O)CNCc1nc2c(Nc3cccc(-c4cccc(OCCCN5CCC(O)C5)c4)c3Cl)nccc2s1 (centres unmarked) [Compound 15, ((4-((2-chloro-3′-(3-(3-hydroxypyrrolidine-1-yl)propoxy)-[1,1′-biphenyl]-3-yl)amino)thiazolo[4,5-c]pyridine-2-yl)methyl)glycine] | > 7.00
5 | COc1nc(-c2cccc(-c3cccc(Nc4nccc5sc(CNCC(=O)O)nc45)c3Cl)c2C)ccc1CNC[C@@H]1CCC(=O)N1 [Compound 20] | > 7.00
6 | COc1nc(-c2cccc(-c3cccc(Nc4nccc5sc(CNCC(=O)O)nc45)c3Cl)c2Cl)ccc1CN1CC2(CCC(=O)N2)C1 [Compound 22] | > 7.00
7 | COc1nc(-c2cccc(-c3cccc(Nc4nccc5sc(CNCC(=O)O)nc45)c3Cl)c2Cl)ccc1CN1CCC2(CNC(=O)C2)C1 (centres unmarked) [Compound 25] | > 7.00
8 | COc1nc(-c2cccc(-c3cccc(Nc4nccc5sc(CNCC(=O)O)nc45)c3Cl)c2Cl)cnc1CNC[C@@H]1CCC(=O)N1 [Compound 26] | 6.00 to 7.00
9 | COc1nc(-c2cccc(-c3cccc(Nc4nccc5sc(CNCC(=O)O)nc45)c3Cl)c2Cl)c(Cl)cc1CNC[C@@H]1CCC(=O)N1 [Compound 28] | > 7.00
10 | COc1nc(-c2cccc(-c3cccc(Nc4nccc5sc(CN6CC(NC(C)=O)C6)nc45)c3Cl)c2Cl)ccc1CN1CC2(CCC(=O)N2)C1 [Compound 29] | > 7.00
11 | COc1nc(-c2cccc(-c3cccc(Nc4nccc5sc(CNCC(=O)O)nc45)c3Cl)c2Cl)cc(C)c1CN1CC2(CCC(=O)N2)C1 [Compound 30] | > 7.00
12 | COc1nc(-c2cccc(-c3cccc(Nc4nccc5sc(CN6C[C@@H](O)CC6=O)nc45)c3Cl)c2Cl)ccc1CN1CC2(CCC(=O)N2)C1 [Compound 31] | > 7.00
13 | COc1nc(-c2cccc(-c3cccc(Nc4nccc5sc(CNCc6nn[nH]n6)nc45)c3Cl)c2Cl)ccc1CN1CC2(CCC(=O)N2)C1 [Compound 39] | > 7.00
14 | COc1nc(-c2cccc(-c3cccc(Nc4nccc5sc(CN6CCC(C(=O)O)CC6)nc45)c3Cl)c2Cl)ccc1CNC[C@@H]1CCC(=O)N1 [Compound 40] | > 7.00
15 | COc1nc(-c2cccc(-c3cccc(Nc4nccc5sc(CN6CCCC[C@@H]6C(=O)O)nc45)c3Cl)c2Cl)ccc1CNC[C@@H]1CCC(=O)N1 [Compound 42] | > 7.00
16 | COc1cc(-c2cccc(-c3cccc(Nc4nccc5sc(CN6CCC(C(=O)O)CC6)nc45)c3Cl)c2Cl)nc(C)c1CNC[C@@H]1CCC(=O)N1 [Compound 43] | > 7.00
17 | COc1nc(-c2cccc(-c3cccc(Nc4nccc5sc(CN6CCC7(CNC(=O)C7)C6)nc45)c3Cl)c2Cl)cc(C)c1CNC[C@@H]1CCC(=O)N1 (some centres unmarked) [Compound 46] | > 7.00

Other lines, results leading:

Row | pIC50 | Compound
18 | > 7.00 | Cc1c(Nc2csc3cc(CNCCO)cnc23)cccc1-c1ccccc1 [Compound 1, 2-(((3-((2-Methyl-[1,1′-biphenyl]-3-yl)amino)thieno[3,2-b]pyridin-6-yl)methyl)amino)ethane-1-ol]
19 | > 7.00 | Cc1c(Nc2csc3cc(CN4C[C@@H](O)C[C@H]4C(=O)O)cnc23)cccc1-c1ccccc1 [Compound 2, (2S,4S)-4-hydroxy-1-((3-((2-methyl-[1,1′-biphenyl]-3-yl)amino)thieno[3,2-b]pyridine-6-yl)methyl)pyrrolidine-2-carboxylic acid]
20 | > 7.00 | NC(=O)CNCc1nc2c(Nc3cccc(-c4ccccc4)c3Cl)nccc2s1 [Compound 3, 2-(((4-((2-chloro-[1,1′-biphenyl]-3-yl)amino)thiazolo[4,5-c]pyridin-2-yl)methyl)amino) acetamide]
21 | > 7.00 | O=C(O)[C@@H]1C[C@H](O)CN1Cc1nc2c(Nc3cccc(-c4ccccc4)c3Cl)nccc2s1 [Compound 4]
22 | > 7.00 | OCCNCc1nc2c(Nc3cccc(-c4ccccc4)c3Cl)nccc2s1 [Compound 5, 2-(((4-((2-Chloro-[1,1′-biphenyl]-3-yl)amino)thiazolo[4,5-c]pyridin-2-yl)methyl)amino)ethane-1-ol]
23 | > 7.00 | OCCNCc1nc2c(Nc3cccc(-c4ccc5c(c4)OCCO5)c3Cl)nccc2s1 [Compound 10, 2-(((4-((2-chloro-3-(2,3-dihydrobenzo[b][1,4]dioxin-6-yl)phenyl)amino)thiazolo[4,5-c)pyridin-2-yl)methyl)amino)ethane-1-ol]
24 | > 7.00 | OCCNCc1nc2c(Nc3cccc(-c4cccc(OCCCCN5CCC(O)C5)c4)c3Cl)nccc2s1 (centres unmarked) [Compound 12, 1-(4-((2′-chloro-3′-((2-(((2-hydroxyethyl)amino)methyl)thiazolo[4,5-c]pyridin-4-yl)amino)-[1,1′-biphenyl]-3-yl)oxo)butyl)pyrrolidin-3-ol]
25 | > 7.00 | CN(CCCO)CCCOc1cccc(-c2cccc(Nc3nccc4sc(CNCC(=O)O)nc34)c2Cl)c1 [Compound 14, ((4-((2-chloro-3′-(3-((3-hydroxypropyl)(methyl)amino)propoxy)-[1,1′-biphenyl]-3-yl)amino)thiazolo[4,5-c]pyridin-2-yl)methyl)glycine]
26 | > 7.00 | Cc1c(OCCCN2CCC(O)C2)cccc1-c1cccc(Nc2nccc3sc(CNCC(=O)O)nc23)c1Cl (centres unmarked) [Compound 16, ((4-((2-chloro-3′-(3-(3-hydroxypyrrolidin-1-yl)propoxy)-2′-methyl-[1,1′-biphenyl]-3-yl)amino)thiazolo[4,5-c]pyridin-2-yl)methyl)glycine]
27 | 6.00 to 7.00 | OCCNCc1nc2ccnc(Nc3cccc(-c4ccccc4)c3Cl)c2s1 [Compound 17, 2-(((4-((2-chloro-[1,1′-biphenyl]-3-yl)amino)thiazolo[5,4-c]pyridin-2-yl)methyl)amino)ethane-1-ol]
28 | > 7.00 | COc1nc(-c2cccc(-c3cccc(Nc4nccc5sc(CNCC(=O)O)nc45)c3Cl)c2Cl)ccc1CNC[C@@H]1CCC(=O)N1 [Compound 18, (S)-((4-((2,2′-dichloro-3′-(6-methoxy-5-((((5-carbonylpyrrolidin-2-yl)methyl)amino)methyl)pyridin-2-yl)-[1,1′-biphenyl]-3-yl)amino)thiazolo[4,5-c]pyridin-2-yl)methyl)glycine]
29 | > 7.00 | COc1nc(-c2cccc(-c3cccc(Nc4nccc5sc(CNCC(=O)OCc6oc(=O)oc6C)nc45)c3Cl)c2Cl)ccc1CNC[C@@H]1CCC(=O)N1 [Compound 19, (5-methyl-2-carbonyl-1,3-dioxazole-4-yl) methyl (S)-((4-((2,2′-dichloro-3′-(6-methoxy-5-((5-carbonylpyrrolidin-2-yl)methyl)pyridine-2-yl)-[1,1′-biphenyl]-3-yl)amino)thiazolo [4,5-c]pyridine-2-yl)methyl) glycine]
30 | > 7.00 | Cc1c(-c2ccc(CNC[C@@H]3CCC(=O)N3)c(O)n2)cccc1-c1cccc(Nc2nccc3sc(CNCC(=O)O)nc23)c1Cl [Compound 21]
31 | > 7.00 | O=C(O)CNCc1nc2c(Nc3cccc(-c4cccc(-c5ccc(CNC[C@@H]6CCC(=O)N6)c(O)n5)c4Cl)c3Cl)nccc2n1CCO [Compound 23]
32 | > 7.00 | COc1nc(-c2cccc(-c3cccc(Nc4nccc5sc(CNCC#N)nc45)c3Cl)c2Cl)ccc1CNC[C@@H]1CCC(=O)N1 [Compound 24]
33 | > 7.00 | COc1nc(-c2cccc(-c3cccc(Nc4nccc5sc(CNCC(=O)O)nc45)c3Cl)c2Cl)cc(C)c1CNC[C@@H]1CCC(=O)N1 [Compound 27]
34 | > 7.00 | COc1nc(-c2cccc(-c3cccc(Nc4nccc5sc(CN6CC(C(=O)O)C6)nc45)c3Cl)c2Cl)ccc1CN1CC2(CCC(=O)N2)C1 [Compound 32]
35 | > 7.00 | COc1nc(-c2cccc(-c3cccc(Nc4nccc5sc(CN6CCC[C@H](C(=O)O)C6)nc45)c3Cl)c2Cl)ccc1CN1CC2(CCC(=O)N2)C1 [Compound 33]
36 | > 7.00 | COc1nc(-c2cccc(-c3cccc(Nc4nccc5sc(CN6CCC[C@@H]6C(=O)O)nc45)c3Cl)c2Cl)ccc1CNC[C@@H]1CCC(=O)N1 [Compound 41]
37 | > 7.00 | COc1nc(-c2cccc(-c3cccc(Nc4nccc5sc(CN6CC[C@H](C(=O)O)C6)nc45)c3Cl)c2Cl)cc(C)c1CNC[C@@H]1CCC(=O)N1 [Compound 44]
38 | > 7.00 | COc1nc(-c2cccc(-c3cccc(Nc4nccc5sc(CN6CC[C@@H](C(=O)O)C6)nc45)c3Cl)c2Cl)cc(C)c1CNC[C@@H]1CCC(=O)N1 [Compound 45]
